{
  "source": "patent US11001587B2",
  "about": "“Substituted indazoles as phosphatidylinositol kinase inhibitors” (CUROVIR AB, priority 2017, dated 2021)",
  "key": {"EV71": {"test_system": "EV71", "assay": "Time of addition assay", "assay_type": "cell-based, Enterovirus 71", "settings": "Enterovirus A, 100 nM, EV71 at high titer", "experimental": "The titer of the virus was determined by the standard method of tissue culture infective dose (TCID50) on cells. Briefly, cells were infected with 50 μl of virus suspension, and diluted 10-fold in media. The plates were incubated in 37° C. with 5% CO2 for 3-7 days and cells were inspected daily for CPE. After determining CPE, plates were stained with Gram's Crystal Violet solution and optical density was read at 540 nm. […] Substances at a final concentration of 0.1 nM-1 μM and the virus were added to the cells and incubated for 3-7 days depending on the virus and cell line used. As controls, uninfected cells and cells infected with virus (no substance) were included on each plate. The cells were stained with crystal violet after determining the CPE on infected controls and the optical density was read at 540 nm. The inhibition capacity was calculated as a % by comparison with non-infected and infected controls. Time of addition assay The assay was performed like the “in vitro assay in mammalian cell culture” described above with the exception that substance was added one hour pre inoculation (−1 h), at inoculation (0 h), and 2 hours (+2 h), 6 hours (+6 h) or 24 hours (+24 h) past inoculation. The virus EV71 was used at high titer for the test."}, "[1]": {"test_system": "Coxsackie B3 (Nancy strain) virus", "assay": "CVB3-induced pancreatitis mouse model", "assay_type": "in vivo", "settings": "Coxsackie B3 Nancy strain infected SJL mice, 4 different dosages, treated 2 h pre-infection then once daily for 3 days", "experimental": "Compounds of the present invention were studied in a CVB3 induced pancreatitis mouse model as described by van der Schaar et al (Antimicrob. Agents Chemother. 2013, 57(10):4971-4981). Animals (SJL mice) were infected intraperitoneally with 0.3 ml Coxsackie B3 (Nancy strain) virus (log TCID50=8). The animals were treated 2 h pre-infection and then once daily for 3 days. The animals were euthanized and organs were collected for pancreatitis evaluation by histopathology and for virus titer determination by immunohistochemistry and polymerase chain reaction (PCR). Pancreata were obtained from infected and uninfected control animals and from animals treated with 4 different dosages of Example 8, and HE-stained slides of the organs were prepared, studied and scored for signs of inflammation and necrosis on a scale from 0 to 3, as follows: 0=no abnormalities. […] The virus titer in the organs was determined by immunohistochemistry using the Dako 5-D8/1 monoclonal mouse antibody and the titer was scored on a scale from 0 to 4, where 0 indicates no infection and 4 corresponds to the highest determined virus titer (FIG. 4). The Ct values from PCR detection of virus titers were determined (FIG. 5). […] Corresponding studies were also performed on Examples 2, 8 and 20 at a dosage of 50 mg/kg/day and pancreatitis scoring and Ct values were determined (FIG. 6)."}, "in vivo": {"assay": "in vivo", "set-up": "species or system Sprague Dawley rats", "settings": "Sprague Dawley, rat, po", "experimental": "Based on previous toxicity tests with analogs and pharmacokinetic data, repeated dose toxicity and toxicokinetic studies were conducted to generate information on the toxic characteristics of some representative compounds of the invention, viz. Example 8 and Example 12, respectively, when administered orally by gavage to Sprague Dawley rats for a period of 7 consecutive days. The study plan for the studies was by current ICH guidelines for 7 days toxicity studies and the No Observed Adverse Effect Level (NOAEL) of Example 8 and Example 12 was determined as 60 mg/kg body weight/day and 50 mg/kg bodyweight/day respectively when administered once daily orally to Sprague Dawley rats for 7 consecutive days under the tested dose levels and experimental conditions employed."}},
  "note": "Read-outs that look alike come from different tables or passages of the source.",
  "data": [
    {"smiles": "Cc1nc(NCc2ccncc2)n2nc(C)c(-c3ccc4c(c3)c(C)nn4C)c2n1", "note": "[Example 20, 8-(1,3-dimethyl-1H-indazol-5-yl)-2,7-dimethyl-N-(pyridin-4-ylmethyl)pyrazolo[1,5-a][1,3,5]triazin-4-amine]", "values": [
      {"measurement": "inhibition at 0.1 µM", "setting": "EV71; 0 h, substance added at inoculation, read-out: Inhibition of cytopathogenic effect, 0 h", "value": 94, "unit": "%"},
      {"measurement": "inhibition at 0.1 µM", "setting": "EV71; 1 h, substance added one hour pre inoculation, read-out: Inhibition of cytopathogenic effect, −1 h", "value": 85, "unit": "%"},
      {"measurement": "inhibition at 0.1 µM", "setting": "EV71; substance added 2 hours past inoculation, read-out: Inhibition of cytopathogenic effect, +2 h", "value": 95, "unit": "%"},
      {"measurement": "inhibition at 0.1 µM", "setting": "EV71; substance added 6 hours past inoculation, read-out: Inhibition of cytopathogenic effect, +6 h", "value": 99, "unit": "%"},
      {"measurement": "inhibition at 0.1 µM", "setting": "EV71; substance added 24 hours past inoculation, read-out: Inhibition of cytopathogenic effect, +24 h", "value": 2, "unit": "%"}
    ]},
    {"smiles": "Cc1cc(NCc2ccncc2)n2nc(C)c(-c3ccc4c(c3)c(C)nn4C)c2n1", "note": "[Example 8, 3-(1,3-dimethyl-1H-indazol-5-yl)-2,5-dimethyl-N-(pyridin-4-ylmethyl)pyrazolo[1,5-a]pyrimidin-7-amine]", "values": [
      {"measurement": "Dose-response of pancreatitis scoring and virus titer", "setting": "[1]", "value": "very good dose-response"},
      {"measurement": "NOAEL at 7 days", "setting": "in vivo", "value": 60, "unit": "mg/kg/day"}
    ]}
  ]
}
